Source: paper PMC7570844, “Skin Damages—Structure Activity Relationship of Benzimidazole Derivatives Bearing a 5-Membered Ring System” (Molecules, 2020)
In brackets after ≈: the same amount, converted by molar mass. Several values for one entry are separate records, joined by “and”; a condition that tells them apart may be missing. Equal values may be shown once. Read-outs that look alike come from different tables or passages of the source.

Tests used:
[1] = tested on: human melanoma cells (SK-Mel 5); assay: Cell proliferation inhibition
Trichophyton tonsurans = assay: Antidermatophyte plaque growth inhibition; assay type: cell-based; conditions: for IC50: T. tonsurans growth, read-out: IC50; for inhibition at 100 µg/mL: read-out: Percent growth inhibition
[2] = tested on: herpes simplex virus-1 (KOS); assay: Antiviral activity in HEL cell cultures (CPE, MTS); assay type: cell-based; conditions: Human alphaherpesvirus 1, HEL cells
Epidermophyton floccosum = assay: Antidermatophyte plaque growth inhibition; assay type: cell-based; conditions: for IC50: E. floccosum growth, read-out: IC50; for inhibition at 100 µg/mL: read-out: Percent growth inhibition
[3] = tested on: Respiratory syncytial virus; assay: microbe, parasite or virus in culture; assay type: cell-based; conditions: human respiratory syncytial virus, HeLa cells, read-out: Antiviral EC50
[4] = tested on: Trichophyton mentagrophytes; assay: Antidermatophyte plaque growth inhibition; assay type: cell-based; conditions: for IC50: T. mentagrophytes growth, read-out: IC50; for inhibition at 100 µg/mL: read-out: Percent growth inhibition
[5] = tested on: M. gypseum, M. canis, T. mentagrophytes, T. tonsurans and E. floccosum; assay: Antidermatophyte activity, all five dermatophytes taken together; assay type: cell-based; conditions: for Activity on dermatophytes (in words) / inhibition at 100 µg/mL: 100 µg/mL; for inhibition at 100 µg/mL / IC50: all five dermatophytes; for inhibition at 100 µg/mL: read-out: Percentage of growth inhibition over the five dermatophytes; for IC50: read-out: IC50 range over the five dermatophytes
[6] = tested on: human cervical carcinoma cells (HeLa); assay: Cell proliferation inhibition
HeLa cell cultures = conditions: human
[7] = tested on: human pancreatic carcinoma cells (Mia Paca-2); assay: Cell proliferation inhibition
[8] = tested on: herpes simplex virus-1 TK-KOS ACVr; assay: microbe, parasite or virus in culture; assay type: cell-based; conditions: Human alphaherpesvirus 1, HEL, read-out: Antiviral EC50
[9] = Ferric reducing antioxidant power (FRAP) test; conditions: mean ± SEM
[10] = tested on: herpes simplex virus-2 (G); assay: Antiviral activity in HEL cell cultures (CPE, MTS); assay type: cell-based; conditions: Human alphaherpesvirus 2; Herpes simplex virus-2, HEL cells
Coxsackie virus B4 = assay: Antiviral activity in HeLa cell cultures (CPE, MTS); assay type: cell-based; conditions: Enterovirus B; Coxsackie virus B4, HeLa cells
Human Coronavirus (229E) = assay: microbe, parasite or virus in culture; assay type: cell-based; conditions: HEL, read-out: Antiviral EC50
[11] = tested on: HEK293T (Normal Kidney Epithelial Cells); assay: Cell proliferation inhibition, non-cancer control cells; conditions: Homo sapiens, HEK-293T
Microsporum canis = assay: Antidermatophyte plaque growth inhibition; assay type: cell-based; conditions: for IC50: M. canis growth, read-out: IC50; for inhibition at 100 µg/mL: read-out: Percent growth inhibition
Microsporum gypseum = assay: Antidermatophyte plaque growth inhibition; assay type: cell-based; conditions: Nannizzia gypsea; for IC50: M. gypseum growth, read-out: IC50; for inhibition at 100 µg/mL: read-out: Percent growth inhibition
[12] = UV filtering parameters of compounds in solution (MeOH, 290-400 nm)
[13] = DPPH radical scavenging test; conditions: mean ± SEM; for DPPH (% Inhibition): tested at 1 mg/mL
[14] = UV filtering parameters of cosmetic formulation on PMMA plates (modified Diffey-Robson); assay type: physicochemical
[15] = tested on: vesicular stomatitis virus; assay: microbe, parasite or virus in culture; assay type: cell-based; conditions: HeLa, read-out: Antiviral EC50
[16] = tested on: human T-lymphocyte cells (CEM); assay: Cell proliferation inhibition
Adeno virus-2 = assay: Antiviral activity in HEL cell cultures (CPE, MTS); assay type: cell-based; conditions: Adeno virus-2, HEL cells
vaccinia virus = assay: microbe, parasite or virus in culture; assay type: cell-based; conditions: Orthopoxvirus vaccinia, HEL, read-out: Antiviral EC50
[17] = tested on: human embryonic lung (HEL) cell cultures
[18] = T. tonsurans, 100 µg/mL, '+' has no key
[19] = E. floccosum, 100 µg/mL, '+' has no key
[20] = T. mentagrophytes, 100 µg/mL, '+' has no key
[21] = M. canis, 100 µg/mL, '+' has no key
[22] = M. gypseum, 100 µg/mL, '+' has no key

Compound: c1c[nH]c(-c2nc3ccccc3[nH]2)c1 [Compound 10, 2-(1H-pyrrol-2-yl)-1H-benzimidazole]
- IC50 [1]: 9.7 ± 1.7 µM
- IC50 (Trichophyton tonsurans): 0.97 ± 0.06 µg/mL (≈ 5.29 µM)
- inhibition at 100 µg/mL (Trichophyton tonsurans; [18]): 96.97 ± 0.62%
- EC50 [2]: > 100 µM
- IC50 (Epidermophyton floccosum): 1.07 ± 0.03 µg/mL (≈ 5.84 µM)
- inhibition at 100 µg/mL (Epidermophyton floccosum; [19]): 102 ± 4.92%
- EC50 [3]: > 100 µM
- IC50 [4]: 1.38 ± 0.08 µg/mL (≈ 7.53 µM)
- inhibition at 100 µg/mL [4, 20]: 96.3 ± 2.42%
- Activity on dermatophytes (in words) [5]: fungicide activity
- inhibition at 100 µg/mL [5]: ~100%
- IC50 [5]: 0.97 to 3.8 µg/mL (≈ 5.29 to 20.7 µM)
- IC50 [6]: 37 µM
- Cytotoxic concentration (HeLa cell cultures): > 100 µM
- IC50 [7]: 15 ± 9 µM
- EC50 [8]: > 100 µM
- FRAP [9]: 1085.57 ± 0.88 µmolTE/g
- EC50 [10]: > 100 µM
- melting point: > 250 °C
- EC50 (Coxsackie virus B4): > 100 µM
- EC50 (Human Coronavirus (229E)): > 100 µM
- IC50 [11]: 31 ± 3 µM
- IC50 (Microsporum canis): 1.34 ± 0.02 µg/mL (≈ 7.31 µM)
- inhibition at 100 µg/mL (Microsporum canis; [21]): 96.8 ± 3.56%
- IC50 (Microsporum gypseum): 1.53 ± 0.05 µg/mL (≈ 8.35 µM)
- inhibition at 100 µg/mL (Microsporum gypseum; [22]): 99.1 ± 1.33%
- UVA/UVB [12]: 0.02
- UVAPF [12]: 1.16±0.05
- λc (critical wavelength) [12]: 325 nm
- DPPH IC50 [13]: 64.098 µg/mL and 64.10 ± 3.21 µg/mL
- SPF ([14]; 1% in formulation): 2.44
- UVA/UVB ([14]; 1% in formulation): 0.70
- UVAPF ([14]; 1% in formulation): 1.16
- λc ([14]; 1% in formulation): 341 nm
- SPF ([14]; 2% in formulation): 2.72
- UVA/UVB ([14]; 2% in formulation): 0.73
- UVAPF ([14]; 2% in formulation): 1.32
- λc ([14]; 2% in formulation): 357 nm
- SPF ([14]; 3% in formulation): 3.06
- UVA/UVB ([14]; 3% in formulation): 0.75
- UVAPF ([14]; 3% in formulation): 1.54
- λc ([14]; 3% in formulation): 364 nm
- EC50 [15]: > 100 µM
- IC50 [16]: 14 ± 1 µM
- EC50 (Adeno virus-2): > 100 µM
- EC50 (vaccinia virus): > 100 µM
- Cytotoxic concentration [17]: > 100 µM

Compound: c1csc(-c2nc3ccccc3[nH]2)c1 [Compound 12, 2-(thiophen-2-yl)-1H-benzimidazole]
- IC50 [1]: 86 ± 17 µM
- IC50 (Trichophyton tonsurans): 2.42 ± 0.15 µg/mL (≈ 12.1 µM)
- inhibition at 100 µg/mL (Trichophyton tonsurans; [18]): 97 ± 1.34%
- EC50 [2]: > 100 µM
- IC50 (Epidermophyton floccosum): 3.8 ± 0.07 µg/mL (≈ 19 µM)
- inhibition at 100 µg/mL (Epidermophyton floccosum; [19]): 94.7 ± 5.45%
- EC50 [3]: > 100 µM
- IC50 [4]: 1.74 ± 0.11 µg/mL (≈ 8.69 µM)
- inhibition at 100 µg/mL [4, 20]: 98.1 ± 2.76%
- Activity on dermatophytes (in words) [5]: fungicide activity
- inhibition at 100 µg/mL [5]: ~100%
- IC50 [5]: 0.97 to 3.8 µg/mL (≈ 4.84 to 19 µM)
- IC50 [6]: > 100 µM
- Cytotoxic concentration (HeLa cell cultures): > 100 µM
- IC50 [7]: ≥ 100 µM
- EC50 [8]: > 100 µM
- FRAP [9]: 75.89 ± 5.43 µmolTE/g
- EC50 [10]: > 100 µM
- EC50 (Coxsackie virus B4): > 100 µM
- EC50 (Human Coronavirus (229E)): > 100 µM
- IC50 [11]: > 100 µM
- IC50 (Microsporum canis): 2.14 ± 0.09 µg/mL (≈ 10.7 µM)
- inhibition at 100 µg/mL (Microsporum canis; [21]): 92.9 ± 1.33%
- IC50 (Microsporum gypseum): 1.55 ± 0.03 µg/mL (≈ 7.74 µM)
- inhibition at 100 µg/mL (Microsporum gypseum; [22]): 100 ± 1.63%
- UVA/UVB [12]: 0.37
- UVAPF [12]: 1.49±0.07
- λc (critical wavelength) [12]: 345 nm
- DPPH (% Inhibition) [13]: 35.05 ± 0.87%
- SPF ([14]; 1% in formulation): 2.41
- UVA/UVB ([14]; 1% in formulation): 0.71
- UVAPF ([14]; 1% in formulation): 1.16
- λc ([14]; 1% in formulation): 340 nm
- SPF ([14]; 2% in formulation): 2.59
- UVA/UVB ([14]; 2% in formulation): 0.70
- UVAPF ([14]; 2% in formulation): 1.22
- λc ([14]; 2% in formulation): 342 nm
- SPF ([14]; 3% in formulation): 2.79
- UVA/UVB ([14]; 3% in formulation): 0.69
- UVAPF ([14]; 3% in formulation): 1.26
- λc ([14]; 3% in formulation): 344 nm
- EC50 [15]: > 100 µM
- IC50 [16]: > 100 µM
- EC50 (Adeno virus-2): > 100 µM
- EC50 (vaccinia virus): > 100 µM
- Cytotoxic concentration [17]: > 100 µM

Compound: O=C(O)c1ccc2[nH]c(-c3ccc[nH]3)nc2c1 [Compound 13, 2-(1H-pyrrol-2-yl)-1H-benzimidazole-5-carboxylic Acid]
- IC50 [1]: > 100 µM
- inhibition at 100 µg/mL (Trichophyton tonsurans; [18]): 4.55 ± 1.34%
- EC50 [2]: > 100 µM
- inhibition at 100 µg/mL (Epidermophyton floccosum; [19]): 21.1 ± 2.14%
- EC50 [3]: > 100 µM
- inhibition at 100 µg/mL [4, 20]: < 0%
- IC50 [6]: > 100 µM
- Cytotoxic concentration (HeLa cell cultures): > 100 µM
- IC50 [7]: > 100 µM
- EC50 [8]: > 100 µM
- FRAP [9]: 108.89 ± 2.98 µmolTE/g
- EC50 [10]: > 100 µM
- melting point: > 250 °C
- EC50 (Coxsackie virus B4): > 100 µM
- EC50 (Human Coronavirus (229E)): > 100 µM
- IC50 [11]: > 100 µM
- inhibition at 100 µg/mL (Microsporum canis; [21]): 8.66 ± 1.78%
- inhibition at 100 µg/mL (Microsporum gypseum; [22]): 3.74 ± 1.49%
- SPF [12]: 7.40±0.23
- UVA/UVB [12]: 0.7
- UVAPF [12]: 1.10±0.09
- λc (critical wavelength) [12]: 345 nm
- DPPH (% Inhibition) [13]: 33.00 ± 1.28%
- EC50 [15]: > 100 µM
- IC50 [16]: > 100 µM
- EC50 (Adeno virus-2): > 100 µM
- EC50 (vaccinia virus): > 100 µM
- Cytotoxic concentration [17]: > 100 µM

Compound: Nc1nc(O)c2ncn(COC(CO)CO)c2n1 [Ganciclovir, reference compound]
- EC50 [2]: 0.01 µM
- EC50 [8]: 0.2 µM
- EC50 [10]: 0.01 µM
- EC50 (vaccinia virus): > 100 µM
- Cytotoxic concentration [17]: > 250 µM

Compound: O=S(=O)(O)c1ccc2[nH]c(-c3ccccc3)nc2c1 [PBSA, 2-phenyl-1H-benzimidazole-5-sulphonic acid, reference compound]
- inhibition at 100 µg/mL (Trichophyton tonsurans): < 0%
- inhibition at 100 µg/mL (Epidermophyton floccosum): 7.41 ± 0.43%
- inhibition at 100 µg/mL [4]: < 0%
- Activity on dermatophytes (in words) [5]: no activity on dermatophytes
- FRAP [9]: <LOQ *
- inhibition at 100 µg/mL (Microsporum canis): < 0%
- inhibition at 100 µg/mL (Microsporum gypseum): 9.62 ± 0.61%
- SPF [12]: 3.40±0.17
- UVA/UVB [12]: 0.29
- UVAPF [12]: 1.03±0.08
- λc (critical wavelength) [12]: 322 nm
- DPPH (% Inhibition) [13]: <LOQ *
- SPF ([14]; 1% in formulation): 3.22
- UVA/UVB ([14]; 1% in formulation): 0.33
- UVAPF ([14]; 1% in formulation): 0.94
- λc ([14]; 1% in formulation): 319 nm
- SPF ([14]; 2% in formulation): 4.63
- UVA/UVB ([14]; 2% in formulation): 0.22
- UVAPF ([14]; 2% in formulation): 0.94
- λc ([14]; 2% in formulation): 321 nm
- SPF ([14]; 3% in formulation): 5.09
- UVA/UVB ([14]; 3% in formulation): 0.25
- UVAPF ([14]; 3% in formulation): 1.02
- λc ([14]; 3% in formulation): 324 nm

Compound: NC(=O)c1ncn([C@@H]2O[C@H](CO)[C@@H](O)[C@H]2O)n1 [Ribaravin, ribavirin, reference compound]
- EC50 [3]: 10 µM
- EC50 (Coxsackie virus B4): 250 µM
- EC50 [15]: 112 µM
